Legend:
[1] = system: senescent bone marrow mesenchymal stem cells; assay: β-gal staining in senescent BMSCs of aged mice; format: cell-based, C57BL/6 mice; conditions: FIG. 5A
Description: (§1) Prior to the start of the experiment, the GENMED staining solution (Reagent E) in the kit was taken out of the refrigerator at −20° C., and thawed in an ice bath. Then 9.5 mL of GENMED dilution (Reagent D) was added into a 15 ml conical centrifuge tube, added with 500 μL of GENMED staining solution (Reagent E), mixed well, and then preheated in a 37° C. thermostatic sink. The obtained mixture was labeled as GENMED staining working solution.

[2] = system: bone marrow mesenchymal stem cells; assay: Alizarin red staining and calcium quantification in BMSCs; format: cell-based, human; conditions: 2 weeks in osteogenic induction culture medium, FIG. 4E, F
Description: (§2) Result of ALP activity was calculated according to Y/incubation time/protein concentration. • (3) Alizarin red staining • 1) After two weeks of osteogenic induction, the culture medium was discarded. The cells were washed three times with PBS pre-cooled at 4° C., and fixed with 70% ethanol at 4° C. for 1 hour. • 2) The cells were washed 2 times with double distilled water, and stained with 40 mM alizarin red solution (pH 4.2) at room temperature for 10 minutes. The staining was observed by naked eyes. • 3) The cells were washed 3 times with double-distilled water. • (4) Determination of Ca^2+ concentration
(§3) To quantitatively determine the concentration of calcium, the cells were added with 10% cetyl pyridinium chloride for dissolution for 30 minutes at room temperature. The OD value was measured at 562 nm using a spectrophotometer, and the calcium ion concentration of the samples was calculated according to the standard curve of calcium ion concentration, with the total protein concentration as an internal reference.

[3] = system: bone marrow mesenchymal stem cells; assay: β-gal staining and quantification in BMSCs; format: cell-based, human; conditions: FIG. 4B, C
Description: as §1

[4] = system: senescent bone marrow mesenchymal stem cells; assay: Alizarin red staining and calcium quantification in senescent BMSCs of aged mice; format: cell-based, C57BL/6 mice; conditions: 2 weeks of osteogenic induction, FIG. 5C, D
Description: as §2, §3

[5] = target: KDM6B/WDR5 protein complex (Homo sapiens, UniProt P61964); assay: Co-IP of KDM6B/WDR5 complex in bone marrow mesenchymal stem cells; format: cell-based; design: endogenous in cells; host or cells: bone marrow mesenchymal stem cells; conditions: FIG. 3C
Description: Protein was extracted from cells of knockout group and overexpression group using IP lysate. The knockout group cells SCAPs-Scramsh and SCAPs-KDM6Bsh, SCAPs-Scramsh and SCAPs-WDR5sh, BMSCs-Scramsh and BMSCs-WDR5sh were added with KDM6B antibody, WDR5 antibody, and IgG antibody, respectively, and then rotated on a shaker at 4° C. overnight. On the next day, the cells were added with Protein A/G beads and rotated on a rotary shaker at 4° C. for 2 hours. A complex of protein-antibody-agarose bead was formed, and the formation of a protein complex of KDM6B and WDR5WB was detected by WB. The overexpression group cells SCAPs-Vector, SCAPs-HA-KDM6B, SCAPs-HA-KDM6B-mut102, and SCAPs-HA-KDM6B-mut114 were added with ProteinA/G beads with HA antibody, and cells SCAPs Vector and SCAPs-Myc-WDR5 were added with ProteinA/G beads with Myc antibody. All cells were incubated overnight to form a complex of protein-antibody-agarose bead. The formation of a protein complex of KDM6B and WDR5 was detected by WB method. • (2) Grouping: Input group (loading amount of 25 μg); antibody group (loading amount of 800 μg, 2 μg of antibody); IgG group (loading amount of 800 μg, 2 μg of antibody). Samples were diluted with lysate. • (3) Preparation of protein A/G beads
The protein A/G beads were washed 4 times with PBS, and centrifuged at 2000 g for 2 minutes. The supernatant was carefully collected, and added with PBS to achieve a content of protein A/G beads of 50%. 30 μL of protein A/G beads was added to each tube, and rotated at 4 degrees overnight. • (4) The samples were centrifuged at 5000 rpm for 30 s at 4° C., and washed 4-5 times with PBS by inverted up and down. Then the samples were centrifuged, and the supernatant was discarded. The samples were added with 30 μL of 2× loading buffer, and placed at 100° C. for 5 minutes. • (5) The supernatant was subjected to electrophoresis.

[6] = system: stem cells from apical papilla; assay: ALP activity of SCAPs after odontogenic induction; format: cell-based, human; conditions: SCAPs treated with polypeptide, 3 days of odontogenic induction, FIG. 8E
Description: • (1) Osteogenic culture medium was purchased from Invitrogen, USA. • (2) Quantification of alkaline phosphatase (ALP) activity • 1) After 3 days of osteogenic induction, the culture medium was discarded, and the cells were washed with PBS twice. • 2) The cells were added with 500 μL of lysis buffer, and incubated at 37° C. for 15 minutes. • 3) The cells were scraped, transferred into a 1.5 mL EP tube, and centrifuged at 14000 rpm at 4° C. for 10 minutes. The supernatant was transferred into a new EP tube to measure the protein concentration, and the procedure was the same as that in Western blot. • 4) The capsule from the alkaline phosphatase kit (Stock substrate Sol.) was dissolved with 5 mL of distilled water under vigorous shaking, and mixed well. • 5) 50 μL of ALP buffer was added to 50 μL of Stock substrate Sol to obtain a mixture. 100 μL of the mixture was added to each well in a 96-well plate, then added with 10 μL of sample, and mixed well. A blank well without sample added was set for zero adjustment. • 6) The plate was incubated at 37° C. for 15 minutes, and the OD value was measured at 405 nm.
as §2

## FITC-(Acp)-KEKSRRVLGNLDLQSYGRKKRRQRRR [peptide 102]
[1]
  number of β-gal positive cells: significant reduction
[2]
  mineralization capacity, quantification of calcium ion: significantly higher
[2]; listed as 102 peptide
  mineralization capacity, quantification of calcium ion: 1.584
[3]
  number of β-gal positive cells (quantification): significant reduction
[3]; listed as 102 peptide
  number of β-gal positive cells (quantification): 19.33
[4]
  mineralization capacity, quantification of calcium ion: significantly higher
[4]; listed as 102 peptide
  mineralization capacity, quantification of calcium ion: 1.154
[5]
  opening/blocking of the binding of KDM6B/WDR5 protein complex (Co-IP): could effectively open the binding
[6]
  ALP activity: promoted
[6]; listed as 102peptide
  ALP activity: 0.3961

## FITC-(Acp)-ADLTISHCAADVVRAYGRKKRRQRRR [peptide 114]
[1]
  number of β-gal positive cells: significant reduction
[2]
  mineralization capacity, quantification of calcium ion: significantly higher
[2]; listed as 114 peptide
  mineralization capacity, quantification of calcium ion: 1.807
[3]
  number of β-gal positive cells (quantification): significant reduction
[3]; listed as 114 peptide
  number of β-gal positive cells (quantification): 16.76
[4]
  mineralization capacity, quantification of calcium ion: significantly higher
[4]; listed as 114 peptide
  mineralization capacity, quantification of calcium ion: 1.251
[5]
  opening/blocking of the binding of KDM6B/WDR5 protein complex (Co-IP): could effectively open the binding
[6]
  ALP activity: promoted
[6]; listed as 114 peptide
  ALP activity: 0.7238

Reference: patent US20250041387A1, “POLYPEPTIDE SEQUENCE OF KDM6B AND APPLICATION OF KDM6B IN REGULATING AND CONTROLLING FUNCTION OF MESENCHYMAL STEM CELL” (BEIJING STOMATOLOGICAL HOSPITAL, CAPITAL MEDICAL UNIVERSITY, priority 2021, published 2025)
